Calls of active or inactive are those of the source. No cut-off for these calls is given here.
Experiments:
[1] = system: RAW264.7; test: Cytotoxicity against RANKL-treated mouse RAW264.7 cells assessed as effect on cell viability at 50 uM measured after 4 days by MTT assay; type: cell-based; conditions: raw264.7, 96 h, time 4 day
[2] = system: RAW264.7; test: Inhibition of RANKL-induced osteoclastogenesis in mouse RAW264.7 cells assessed as reduction in number of TRAP-positive multinuclear cells measured after 4 days by TRAP staining based assay; type: functional, cell-based; conditions: for inhibition: time 4.0 day
[3] = system: RAW264.7; test: Inhibition of RANKL-induced osteoclastogenesis in mouse RAW264.7 cells assessed as reduction in Nfatc1 mRNA expression at 30 uM measured after 24 hrs by qRT-PCR method; type: functional
[4] = system: RAW264.7; test: Inhibition of RANKL-induced osteoclastogenesis in mouse RAW264.7 cells assessed as reduction in TRAP activity at 5 uM measured after 4 days by pNPP based assay; type: functional, cell-based; conditions: time 4.0 day
[5] = system: RAW264.7; test: Inhibition of RANKL-induced osteoclastogenesis in mouse RAW264.7 cells assessed as reduction in TRAP activity measured after 4 days by pNPP based assay; type: functional, cell-based; conditions: dose 0.2-1 µM, time 4.0 day
[6] = system: RAW264.7; test: Inhibition of RANKL-induced osteoclastogenesis in mouse RAW264.7 cells assessed as reduction in number of TRAP-positive multinuclear cells at 5 uM measured after 4 days by TRAP staining based assay; type: functional, cell-based; conditions: time 4.0 day
[7] = system: RAW264.7; test: Inhibition of RANKL-induced osteoclastogenesis in mouse RAW264.7 cells assessed as reduction in number of TRAP-positive multinuclear cells at 0.2 uM measured after 4 days by TRAP staining based assay; type: functional; conditions: RAW264.7, 96 h, time 4 day

For C=C[C@]1(C)C=C2[C@@H](O)[C@@]3(O)OC(=O)[C@@]4(CCCC(C)(C)[C@H]34)[C@@]2(O)CC1 [SPHAEROPSIDIN B], the Activity [1] was “Non-Toxic”, the IC50 ([2]; RAW264.7, 96 h) was 10.6 µM and the inhibition at 30 µM [3] was 63%.

C=C[C@]1(C)C=C2C(=O)C[C@H]3C(C)(C)CCC[C@]3(C(=O)O)[C@@]2(O)CC1 [SPHAEROPSIDIN C] was tested, and the Activity [1] was “Non-Toxic”.

C=C[C@]1(C)C=C2[C@H]3OC(OC)[C@@]4([C@H](O)CCC(C)(C)[C@@H]4[C@H]3O)[C@H]2CC1 (stereo not given in full) was tested, and the Activity [1] was “Non-Toxic”.

With C=C[C@@]1(C)CC[C@H]2[C@H]([C@H]1O)[C@@H](O)C[C@H]1C(C)(C)CCC[C@]21C(=O)O the Activity [1] was “Non-Toxic”.

C=C[C@@]1(C)CC[C@H]2C(=C[C@H](O)[C@H]3C(C)(C)CC[C@@H](O)[C@]23C)[C@H]1O was tested, and the Activity [1] was “Non-Toxic”.

With C=C[C@@]1(C)C[C@@H](O)[C@H]2C(=C[C@H](O)[C@H]3C(C)(C)CCC[C@]23C)[C@H]1O the Activity [1] was “Non-Toxic”.

With C=C[C@]1(C)C=C2[C@H](O)C[C@H]3C(C)(C)CC[C@@H](O)[C@]3(C)[C@H]2CC1 the Activity [1] was “Non-Toxic”.

For C=C[C@]1(C)C=C2[C@H]3OC(=O)[C@@]4(CCCC(C)(C)[C@@H]4[C@H]3O)[C@H]2CC1, the Activity [1] was “Non-Toxic”, the inhibition [4] was “Active” and the inhibition [2] was “Dose-Dependent Effect”. For the same compound, the inhibition [5] was “Dose-Dependent Effect” and the inhibition [6] was “Active”.

For C=C[C@]1(C)C=C2[C@@H](O)C[C@H]3C(C)(C)CCC[C@]3(C(=O)O)[C@@]2(O)[C@H](O)C1, the Activity [1] was “Non-Toxic”.

C=C[C@]1(C)C=C2C(=O)C[C@H]3C(C)(C)CC[C@@H](O)[C@]3(C(=O)O)[C@H]2CC1 was tested, and the Activity [1] was “Non-Toxic”.

With C=C[C@@]1(C)CCc2c3c(c(O)c(OS(=O)(=O)O)c2[C@H]1O)C(C)(C)CCC3 the Activity [1] was “Non-Toxic”.

In the case of C=C[C@]1(C)C=C2[C@@H](O)C(=O)[C@H]3C(C)(C)CCC[C@]3(C(=O)O[C@@H]3O[C@H](CO)[C@@H](O)[C@H](O)[C@H]3O)[C@H]2CC1, the Activity [1] is reported as “Non-Toxic”, the inhibition [4] is reported as “Active” and the inhibition [2] is reported as “Dose-Dependent Effect”. The inhibition [5] was “Dose-Dependent Effect” and the inhibition [6] was “Active”.

With C=C[C@@]1(C)CC(=O)C2=C([C@H]1O)[C@@]1(O)OC[C@@]23CCCC(C)(C)[C@@H]3[C@H]1O the Activity [1] was “Non-Toxic”.

For C=C[C@@]1(C)C[C@@H](O)[C@@H]2[C@@]34CCCC(C)(C)[C@@H]3[C@H](O)C(=O)[C@@]2(OC4=O)[C@H]1O, the Activity [1] was “Non-Toxic”.

C=C[C@]1(C)C=C2C(=O)C(=O)[C@H]3C(C)(C)CCC[C@]3(C(=O)O)[C@@]2(O)CC1 was tested, and the Activity [1] was “Non-Toxic”.

For C=C[C@@]1(C)CC[C@]2(O)[C@@]34CCCC(C)(C)C3=C(O)C(=O)[C@@]2(OC4=O)[C@H]1O, the Activity [1] was “Non-Toxic”.

For C=C[C@]1(C)C=C2[C@@H](O)C[C@H]3C(C)(C)CCC[C@]3(C(=O)O)[C@H]2CC1, the Activity [1] was “Non-Toxic”.

C=C[C@]1(C)C=C2[C@H]3OC(=O)[C@@]4(CCCC(C)(C)[C@@H]4[C@H]3O)[C@@]2(O)CC1 was tested, and the Activity [1] was “Non-Toxic”.

For C=C[C@]1(C)C=C2[C@H]([C@@H](O)C1)[C@@]1(C(=O)O)CCCC(C)(C)[C@@H]1C[C@@H]2O, the inhibition at 0.2 µM [7] was 92%, the Activity [1] was “Non-Toxic” and the inhibition [4] was “Active”. The inhibition [2] was “Dose-Dependent Effect”, the inhibition [5] was “Dose-Dependent Effect” and the inhibition [6] was “Active”.

With C=C[C@]1(C)C=C2C(=O)[C@@H](O)[C@H]3C(C)(C)CCC[C@]3(C(=O)O[C@@H]3O[C@H](CO)[C@@H](O)[C@H](O)[C@H]3O)[C@H]2CC1 the Activity [1] was “Non-Toxic”.
